How the values were obtained:
H522 cells = assay: MTT assay, viability of H522 cells; type: cell-based; details: Homo sapiens, NCI-H522, 72 h, three days, read-out: IC50 against the viability
Experimental: Cells were seeded into 96-well plates at a density of 1-2 × 10^3 cells/well and incubated for 24 h. Cells were treated with vehicle or various concentrations of test compounds for two (PC9 and PC9/ER cells) or three (other cells) days. Cells were further incubated with MTT solution (final concentration of 500 μg/mL) for 4 h at 37 °C. The formazan products were dissolved in dimethyl sulfoxide (DMSO), and the absorbance was measured at 570 nm. The data are presented as a percentage of the control group.

97 tested kinases = assay: Kinome-wide inhibition profiling (KINOMEscan, TREEspot); type: binding, human; details: 10 µM, > 65% inhibition
[1] = tested on: Kras^G12D/+-driven lung tumors; assay: Mutant Kras-driven lung tumorigenesis model; type: in vivo, Kras^G12D/+ transgenic mice
Experimental: All animal experiments were performed according to protocols approved by the Seoul National University Institutional Animal Care and Use Committee. Mice were fed standard mouse chow and water ad libitum and housed in temperature- and humidity-controlled facilities with a 12-h light/12-h dark cycle. For xenograft experiments, H1944 and A549 cells (1×10^6 cells/spot, diluted in equal amounts of PBS and Matrigel) were subcutaneously injected into the right flank of 6-week-old non-obese diabetic-severe combined immunodeficiency (NOD/SCID) mice. After the tumor volume reached 50-150 mm^3, the mice were randomly grouped and treated with vehicle [10% DMSO in 60% polyethylene glycol (PEG) 400 solution] or LL6 (80 mg/kg) 6 days per week for 2 weeks. Tumor growth was determined by measuring the short and long diameters of the tumor with a caliper, and body weight was measured once or twice per week to monitor toxicity. Additionally, to evaluate the effect of LL6 on mutant Kras-driven lung tumorigenesis, 2-month-old Kras^G12D/+ transgenic mice were randomized and treated with vehicle or LL6 (80 mg/kg) for 8 weeks. The mice were euthanized, and tumor formation was evaluated and compared with that of the vehicle-treated control group. Microscopic evaluations of the H&E-stained lung tissue were also performed to measure mean tumor number (N) and volume (V) in a blinded fashion. The number and size of tumors were calculated in five sections uniformly distributed throughout each lung. In both animal experiments, the tumor volume and burden of each sample were calculated using the following formulas: Tumor volume (mm^3) = (short diameter)^2 × (long diameter) × 0.5; Tumor burden (mm^3) = number of tumors × the average of tumor volume.
Sections derived from formalin-fixed and paraffin-embedded murine lung tissues were deparaffinized by incubation overnight at 65 °C, followed by rehydration in sequential xylene and ethanol rinses. After incubation with hydrogen peroxide, the slides were washed with PBS and then incubated with 0.3% Triton X-100. The sections were incubated with blocking solution (Dako Protein Block, Dako, Glostrup, Denmark) for 30 min at room temperature after washing with PBS. The sections were further incubated with primary antibodies (pAXL, pIGF-1R, and pSrc, diluted at 1:200) overnight at 4 °C, washed with PBS several times, incubated with the corresponding biotinylated secondary antibodies (diluted at 1:500), and then washed with PBS multiple times. After adding avidin-biotin complexes (Vector Laboratories, Burlingame, CA, USA), the sections were visualized using diaminobenzidine detection reagent (Enzo Life Sciences, Farmingdale, NY, USA) and mounted with a mounting solution (Vector Laboratories).

CDK2 = biological target: T1, CDK2 (Homo sapiens, UniProt P24941); assay: KINOMEscan competition binding assay; details: LL6 at 10 μM; read-out: Percent Control
T1 construct: purchased DiscoverX KINOMEscan
Experimental: (§1) Kd values were obtained by KINOMEscan from DiscoverX (San Diego, CA, USA). To briefly summarize, Kd was measured by a competition binding assay that quantitatively measures the ability of a compound to compete with an immobilized ligand. […] Dose response curves of 11 points are obtained for Kd values, which are measured in duplicate. See more details in the cited references [39]-[42] and see also at www.discoverx.com.

CDK7 = biological target: T2, CDK7 (Homo sapiens, UniProt P50613); assay: KINOMEscan competition binding assay; details: LL6 at 10 μM; read-out: Percent Control
T2 construct: purchased DiscoverX KINOMEscan
Experimental: as §1

CSNK1D = biological target: T3, CSNK1D (Homo sapiens, UniProt P48730); assay: KINOMEscan competition binding assay; details: LL6 at 10 μM; read-out: Percent Control
T3 construct: purchased DiscoverX KINOMEscan
Experimental: as §1

EGFR = biological target: T4, EGFR (Homo sapiens, UniProt P00533); assay: KINOMEscan competition binding assay; details: LL6 at 10 μM; read-out: Percent Control
T4 construct: purchased DiscoverX KINOMEscan
Experimental: as §1

EGFR(L858R) = biological target: T5, EGFR(L858R) (Homo sapiens, UniProt P00533, L858R); assay: KINOMEscan competition binding assay; details: LL6 at 10 μM; read-out: Percent Control
T5 construct: purchased DiscoverX KINOMEscan
Experimental: as §1

ERBB4 = biological target: T6, ERBB4 (Homo sapiens, UniProt Q15303); assay: KINOMEscan competition binding assay; details: LL6 at 10 μM; read-out: Percent Control
T6 construct: purchased DiscoverX KINOMEscan
Experimental: as §1

ERK1 = biological target: T7, ERK1 (Homo sapiens, UniProt P27361); assay: KINOMEscan competition binding assay; details: LL6 at 10 μM; read-out: Percent Control
T7 construct: purchased DiscoverX KINOMEscan
Experimental: as §1

FLT3 = biological target: T8, FLT3 (Homo sapiens, UniProt P36888); assay: KINOMEscan competition binding assay; details: LL6 at 10 μM; read-out: Percent Control
T8 construct: purchased DiscoverX KINOMEscan
Experimental: as §1

[2] = biological target: T9, JAK3(JH1domain-catalytic) (Homo sapiens, UniProt P52333); assay: KINOMEscan competition binding assay; details: LL6 at 10 μM; read-out: Percent Control
T9 construct: JAK3(JH1domain-catalytic); purchased DiscoverX KINOMEscan
Experimental: as §1

MEK2 = biological target: T10, MEK2 (Homo sapiens, UniProt P36507); assay: KINOMEscan competition binding assay; details: LL6 at 10 μM; read-out: Percent Control
T10 construct: purchased DiscoverX KINOMEscan
Experimental: as §1

MKNK2 = biological target: T11, MKNK2 (Homo sapiens, UniProt Q9HBH9); assay: KINOMEscan competition binding assay; details: LL6 at 10 μM; read-out: Percent Control
T11 construct: purchased DiscoverX KINOMEscan
Experimental: as §1

PCTK1 = biological target: T12, PCTK1 (Homo sapiens, UniProt Q00536); assay: KINOMEscan competition binding assay; details: LL6 at 10 μM; read-out: Percent Control
T12 construct: purchased DiscoverX KINOMEscan
Experimental: as §1

PDGFRB = biological target: T13, PDGFRB (Homo sapiens, UniProt P09619); assay: KINOMEscan competition binding assay
T13 construct: purchased DiscoverX KINOMEscan
Experimental: as §1

PDPK1 = biological target: T14, PDPK1 (Homo sapiens, UniProt O15530); assay: KINOMEscan competition binding assay; details: LL6 at 10 μM; read-out: Percent Control
T14 construct: purchased DiscoverX KINOMEscan
Experimental: as §1

PIK3CA = biological target: T15, PIK3CA (Homo sapiens, UniProt P42336); assay: KINOMEscan competition binding assay; details: LL6 at 10 μM; read-out: Percent Control
T15 construct: purchased DiscoverX KINOMEscan
Experimental: as §1

PIK3CG = biological target: T16, PIK3CG (Homo sapiens, UniProt P48736); assay: KINOMEscan competition binding assay; details: LL6 at 10 μM; read-out: Percent Control
T16 construct: purchased DiscoverX KINOMEscan
Experimental: as §1

PIM2 = biological target: T17, PIM2 (Homo sapiens, UniProt Q9P1W9); assay: KINOMEscan competition binding assay; details: LL6 at 10 μM; read-out: Percent Control
T17 construct: purchased DiscoverX KINOMEscan
Experimental: as §1

TGFBR1 = biological target: T18, TGFBR1 (Homo sapiens, UniProt P36897); assay: KINOMEscan competition binding assay; details: LL6 at 10 μM; read-out: Percent Control
T18 construct: purchased DiscoverX KINOMEscan
Experimental: as §1

TRKA = biological target: T19, TRKA (Homo sapiens, UniProt P04629); assay: KINOMEscan competition binding assay; details: LL6 at 10 μM; read-out: Percent Control
T19 construct: purchased DiscoverX KINOMEscan
Experimental: as §1

TSSK1B = biological target: T20, TSSK1B (Homo sapiens, UniProt Q9BXA7); assay: KINOMEscan competition binding assay; details: LL6 at 10 μM; read-out: Percent Control
T20 construct: purchased DiscoverX KINOMEscan
Experimental: as §1

T13 sequence (P09619 33-1106): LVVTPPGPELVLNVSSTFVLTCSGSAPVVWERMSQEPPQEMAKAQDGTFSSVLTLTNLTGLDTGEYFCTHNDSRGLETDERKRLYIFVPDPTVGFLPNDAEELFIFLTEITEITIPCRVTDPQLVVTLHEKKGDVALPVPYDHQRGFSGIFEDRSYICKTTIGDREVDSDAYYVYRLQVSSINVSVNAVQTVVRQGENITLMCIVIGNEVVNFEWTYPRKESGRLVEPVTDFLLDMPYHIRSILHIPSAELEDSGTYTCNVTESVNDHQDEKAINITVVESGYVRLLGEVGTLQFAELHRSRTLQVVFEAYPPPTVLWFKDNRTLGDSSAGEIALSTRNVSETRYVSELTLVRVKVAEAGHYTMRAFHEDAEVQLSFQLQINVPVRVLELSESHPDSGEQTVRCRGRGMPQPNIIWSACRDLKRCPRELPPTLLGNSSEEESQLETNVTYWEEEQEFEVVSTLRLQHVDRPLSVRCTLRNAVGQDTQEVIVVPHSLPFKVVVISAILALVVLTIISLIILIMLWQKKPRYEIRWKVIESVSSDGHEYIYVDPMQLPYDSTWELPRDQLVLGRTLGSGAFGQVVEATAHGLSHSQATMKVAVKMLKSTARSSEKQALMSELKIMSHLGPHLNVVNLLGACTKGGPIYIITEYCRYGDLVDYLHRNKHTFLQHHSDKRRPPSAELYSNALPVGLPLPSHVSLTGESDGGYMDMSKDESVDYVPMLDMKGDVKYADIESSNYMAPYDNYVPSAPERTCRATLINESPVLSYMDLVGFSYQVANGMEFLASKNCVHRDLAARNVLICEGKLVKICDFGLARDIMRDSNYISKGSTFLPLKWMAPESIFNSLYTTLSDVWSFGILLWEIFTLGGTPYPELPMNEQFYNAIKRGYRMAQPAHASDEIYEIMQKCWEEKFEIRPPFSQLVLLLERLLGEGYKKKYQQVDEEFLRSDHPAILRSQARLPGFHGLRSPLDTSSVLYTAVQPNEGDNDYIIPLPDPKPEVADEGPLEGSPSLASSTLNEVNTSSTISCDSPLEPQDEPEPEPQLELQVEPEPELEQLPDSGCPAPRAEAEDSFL
T19 sequence (P04629 33-796): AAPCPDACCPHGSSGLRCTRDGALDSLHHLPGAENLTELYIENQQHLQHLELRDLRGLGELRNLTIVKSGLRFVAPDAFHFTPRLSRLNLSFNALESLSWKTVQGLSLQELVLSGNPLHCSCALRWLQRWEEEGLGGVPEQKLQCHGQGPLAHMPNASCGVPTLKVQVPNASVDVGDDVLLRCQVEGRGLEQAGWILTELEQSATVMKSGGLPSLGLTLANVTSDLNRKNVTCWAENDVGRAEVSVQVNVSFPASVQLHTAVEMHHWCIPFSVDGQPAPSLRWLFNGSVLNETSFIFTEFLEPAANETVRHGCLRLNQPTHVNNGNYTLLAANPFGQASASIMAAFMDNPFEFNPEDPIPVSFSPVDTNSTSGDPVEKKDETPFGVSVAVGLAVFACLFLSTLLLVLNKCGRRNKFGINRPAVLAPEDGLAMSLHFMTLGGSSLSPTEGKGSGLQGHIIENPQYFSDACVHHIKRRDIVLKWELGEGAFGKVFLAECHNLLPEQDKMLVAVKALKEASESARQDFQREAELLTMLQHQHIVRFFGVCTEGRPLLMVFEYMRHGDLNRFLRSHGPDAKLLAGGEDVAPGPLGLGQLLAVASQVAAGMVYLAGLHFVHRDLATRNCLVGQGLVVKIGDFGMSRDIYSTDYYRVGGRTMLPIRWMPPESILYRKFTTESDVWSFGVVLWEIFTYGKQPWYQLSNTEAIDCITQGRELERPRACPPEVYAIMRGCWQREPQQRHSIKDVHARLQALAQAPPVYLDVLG
T17 sequence (Q9P1W9 whole entry): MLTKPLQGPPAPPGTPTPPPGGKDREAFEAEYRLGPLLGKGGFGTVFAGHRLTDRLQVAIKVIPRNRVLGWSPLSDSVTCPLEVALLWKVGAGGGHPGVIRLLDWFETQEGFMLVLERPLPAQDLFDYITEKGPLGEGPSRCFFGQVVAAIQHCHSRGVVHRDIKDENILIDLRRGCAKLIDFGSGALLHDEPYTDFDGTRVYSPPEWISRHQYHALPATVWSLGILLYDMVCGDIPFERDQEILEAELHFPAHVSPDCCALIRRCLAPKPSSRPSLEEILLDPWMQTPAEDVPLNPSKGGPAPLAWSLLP
T9 sequence (P52333 822-1111 limits assumed): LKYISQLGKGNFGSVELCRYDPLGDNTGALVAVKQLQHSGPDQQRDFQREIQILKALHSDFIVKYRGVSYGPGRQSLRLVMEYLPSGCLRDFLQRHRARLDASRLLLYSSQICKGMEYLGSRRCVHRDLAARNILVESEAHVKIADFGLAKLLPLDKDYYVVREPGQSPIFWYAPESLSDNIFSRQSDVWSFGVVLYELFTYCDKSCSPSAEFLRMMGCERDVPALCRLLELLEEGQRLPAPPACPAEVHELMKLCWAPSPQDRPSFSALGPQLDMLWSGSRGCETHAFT
T20 sequence (Q9BXA7 whole entry): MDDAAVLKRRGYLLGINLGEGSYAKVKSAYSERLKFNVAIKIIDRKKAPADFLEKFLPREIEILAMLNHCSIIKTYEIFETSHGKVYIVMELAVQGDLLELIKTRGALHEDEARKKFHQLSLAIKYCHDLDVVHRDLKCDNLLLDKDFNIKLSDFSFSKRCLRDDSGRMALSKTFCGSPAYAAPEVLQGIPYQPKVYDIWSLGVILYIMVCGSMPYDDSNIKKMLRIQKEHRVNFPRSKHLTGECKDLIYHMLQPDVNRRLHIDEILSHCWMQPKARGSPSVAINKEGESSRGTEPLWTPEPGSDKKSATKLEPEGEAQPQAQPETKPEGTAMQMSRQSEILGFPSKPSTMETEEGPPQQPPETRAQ
T2 sequence (P50613 whole entry): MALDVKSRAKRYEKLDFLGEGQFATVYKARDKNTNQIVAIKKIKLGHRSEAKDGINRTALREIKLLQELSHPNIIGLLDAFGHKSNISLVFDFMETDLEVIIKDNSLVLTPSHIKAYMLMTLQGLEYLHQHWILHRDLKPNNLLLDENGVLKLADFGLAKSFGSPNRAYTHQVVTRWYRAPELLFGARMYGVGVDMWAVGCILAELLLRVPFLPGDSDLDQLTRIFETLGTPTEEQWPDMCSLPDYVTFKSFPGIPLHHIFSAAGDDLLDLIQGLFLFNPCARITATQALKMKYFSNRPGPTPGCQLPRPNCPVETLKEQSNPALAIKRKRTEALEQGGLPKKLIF
T6 sequence (Q15303 26-1308): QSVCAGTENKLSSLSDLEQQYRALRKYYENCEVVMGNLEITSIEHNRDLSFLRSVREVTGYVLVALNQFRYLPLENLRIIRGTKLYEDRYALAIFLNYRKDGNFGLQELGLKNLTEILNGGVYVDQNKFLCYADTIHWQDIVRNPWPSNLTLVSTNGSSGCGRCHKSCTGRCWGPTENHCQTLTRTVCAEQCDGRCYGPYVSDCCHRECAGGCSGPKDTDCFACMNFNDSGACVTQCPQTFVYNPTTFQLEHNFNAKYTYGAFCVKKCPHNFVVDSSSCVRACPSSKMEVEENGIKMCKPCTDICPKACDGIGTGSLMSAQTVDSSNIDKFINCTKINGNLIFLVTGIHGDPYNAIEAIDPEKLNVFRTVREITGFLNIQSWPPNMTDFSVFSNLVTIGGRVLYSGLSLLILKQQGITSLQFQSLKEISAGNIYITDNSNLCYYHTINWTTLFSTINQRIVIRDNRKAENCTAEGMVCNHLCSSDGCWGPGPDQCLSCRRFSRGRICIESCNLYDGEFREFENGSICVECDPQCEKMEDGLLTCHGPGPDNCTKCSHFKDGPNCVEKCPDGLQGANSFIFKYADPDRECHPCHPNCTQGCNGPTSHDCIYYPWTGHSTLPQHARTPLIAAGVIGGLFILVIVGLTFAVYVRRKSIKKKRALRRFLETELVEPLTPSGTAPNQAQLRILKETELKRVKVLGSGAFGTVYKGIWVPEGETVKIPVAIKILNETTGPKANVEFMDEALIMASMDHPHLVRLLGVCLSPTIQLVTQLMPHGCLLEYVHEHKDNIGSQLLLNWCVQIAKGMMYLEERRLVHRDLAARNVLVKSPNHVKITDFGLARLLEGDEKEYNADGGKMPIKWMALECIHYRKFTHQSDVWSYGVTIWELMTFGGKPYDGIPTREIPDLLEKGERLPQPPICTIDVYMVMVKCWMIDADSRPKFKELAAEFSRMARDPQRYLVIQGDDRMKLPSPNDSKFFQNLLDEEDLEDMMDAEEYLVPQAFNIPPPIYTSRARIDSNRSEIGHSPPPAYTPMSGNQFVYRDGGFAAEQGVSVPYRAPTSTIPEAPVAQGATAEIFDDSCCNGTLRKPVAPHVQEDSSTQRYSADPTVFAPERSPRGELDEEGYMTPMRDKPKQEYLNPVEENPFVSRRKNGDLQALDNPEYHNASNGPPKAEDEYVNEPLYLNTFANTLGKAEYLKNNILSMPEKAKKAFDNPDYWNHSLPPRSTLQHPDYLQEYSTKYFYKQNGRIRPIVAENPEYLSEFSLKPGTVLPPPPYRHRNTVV
T14 sequence (O15530 whole entry): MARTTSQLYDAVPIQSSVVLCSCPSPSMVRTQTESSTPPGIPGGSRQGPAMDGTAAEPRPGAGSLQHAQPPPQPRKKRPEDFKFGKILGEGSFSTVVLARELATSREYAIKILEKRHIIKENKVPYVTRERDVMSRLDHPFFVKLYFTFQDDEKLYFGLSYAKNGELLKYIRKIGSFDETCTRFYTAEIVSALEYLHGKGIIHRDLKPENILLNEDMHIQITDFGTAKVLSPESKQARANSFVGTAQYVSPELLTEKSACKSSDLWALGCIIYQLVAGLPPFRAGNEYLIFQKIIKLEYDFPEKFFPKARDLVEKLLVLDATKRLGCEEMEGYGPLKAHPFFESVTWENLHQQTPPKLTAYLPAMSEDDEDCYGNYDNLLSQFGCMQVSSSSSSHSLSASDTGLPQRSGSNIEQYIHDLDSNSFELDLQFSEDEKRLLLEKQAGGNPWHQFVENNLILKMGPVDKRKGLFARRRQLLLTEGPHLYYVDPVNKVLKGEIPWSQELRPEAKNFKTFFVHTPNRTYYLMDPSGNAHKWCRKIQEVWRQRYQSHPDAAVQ

Nc1ncnc2c1c(-c1ccc(Cl)cc1)nn2CCn1cc(COc2ccc(Nc3nccc(Nc4cnc5ccccc5c4)n3)cc2)nn1 [LL6]
IC50 (H522 cells): 3.55 µM
S-score (97 tested kinases): 0.12
tumor volume and burden ([1]; 80 mg/kg for 8 weeks): Substantial decreases
lung tumor nodules (multiplicity) ([1]; 80 mg/kg for 8 weeks, especially nodules > 1 mm^3): significantly decreased
body weight ([1]; 80 mg/kg for 8 weeks, vs vehicle): no detectable difference
levels of pIGF-1R, pSrc, and pAXL in lung tumors ([1]; immunohistochemistry, 80 mg/kg, vs vehicle): significantly decreased levels
remaining binding at 10 µM (CDK2): 99%
remaining binding at 10 µM (CDK7): 56%
remaining binding at 10 µM (CSNK1D): 14%
remaining binding at 10 µM (EGFR): 82%
remaining binding at 10 µM (EGFR(L858R)): 88%
remaining binding at 10 µM (ERBB4): 40%
remaining binding at 10 µM (ERK1): 100%
remaining binding at 10 µM (FLT3): 43%
remaining binding at 10 µM [2]: 100%
remaining binding at 10 µM (MEK2): 95%
remaining binding at 10 µM (MKNK2): 89%
remaining binding at 10 µM (PCTK1): 78%
remaining binding at 10 µM (PDGFRB; LL6 at 10 μM, read-out: Percent Control): 5%
inhibition at 10 µM (PDGFRB; PDGFRB, LL6 at 10 µM): > 65%
remaining binding at 10 µM (PDPK1): 87%
remaining binding at 10 µM (PIK3CA): 100%
remaining binding at 10 µM (PIK3CG): 63%
remaining binding at 10 µM (PIM2): 100%
remaining binding at 10 µM (TGFBR1): 46%
remaining binding at 10 µM (TRKA): 100%
remaining binding at 10 µM (TSSK1B): 100%
